Starred links: 1 amine or outer side, 2 acyl side, 3 side chain; linkers in the order of their positions; H or OH if unused. Non-standard residues stand in square brackets, D forms with d. Residues, ends and D or L forms follow the SMILES beside them. *: point of attachment. Dolaproine = CO[C@@H]([C@@H]1CCCN1)[C@@H](C)C(=O)O; X11 = O=C([C@@H](N[*:1])[C@H]1Cc2ccccc21)[*:2]; X2 = O=C([C@H](N[*:1])C1(c2ccccc2)CC1)[*:2]; Dil = CC[C@H](C)[C@H](NC)[C@@H](CC(=O)O)OC; Doe = c1ccc(C[C@H](N*)c2nccs2)cc1; d(αMeV) = CC(C)[C@@](C)(N)C(=O)O; d(αMeP) = C[C@]1(C(=O)O)CCCN1; αMeP = C[C@@]1(C(=O)O)CCCN1; Iva = CC[C@](C)(N)C(=O)O; NMeAib = CNC(C)(C)C(=O)O; X4 = CN(C)C(C)(C)C(=O)*; X8 = C1=CC=CC(CCN*)C=C1; Ac3c = NC1(C(=O)O)CC1; Aib = CC(C)(N)C(=O)O; OAll = C=CCO*; NHPr = CCCN*
Key:
Assay in all cases: In vitro cell assay, MTS cell viability 96 hours after treatment
Type in all cases: cell-based
BT474 (breast cancer) = conditions: Homo sapiens, BT-474, BT474 cells; geometric mean; cytotoxic peptides; read-out: BT474 GMEAN IC50
Protocol: (§1) Cells were treated with 3-fold serially diluted antibody-drug conjugates or free compounds (i.e., no antibody conjugated to the drug) in duplicate at 10 concentrations. Cell viability was determined by CellTiter 96® AQueous One Solution Cell Proliferation MTS Assay (Promega, Madison Wis.) 96 hours after treatment. Relative cell viability was determined as percentage of untreated control.

[1] = test system: MDA-MB-361-DYT2 (breast cancer); conditions: read-out: MDA-MB-361-DYT2 GMEAN IC50, MDA-MB-361-DYT2 cells; geometric mean; cytotoxic peptides
Protocol: as §1

N87 (gastric cancer) = conditions: read-out: N87 GMEAN IC50, N87 cells; geometric mean; cytotoxic peptides
Protocol: as §1

Structure (SMILES)	IC50 (BT474 (breast cancer))	IC50 [1]	IC50 (N87 (gastric cancer))
CCCNC(=O)[C@H](Cc1ccccc1)NC(=O)[C@H](C)[C@@H](OC)[C@@H]1CCCN1C(=O)C[C@@H](OC)[C@H]([C@@H](C)CC)N(C)C(=O)[C@@H](NC(=O)C(C)(C)NC)C(C)C [#142, N,2-dimethylalanyl-N-{(1S,2R)-4-{(2S)-2-[(1R,2R)-3-{[(1S)-1-benzyl-2-oxo-2-(propylamino)ethyl]amino}-1-methoxy-2-methyl-3-oxopropyl]pyrrolidin-1-yl}-2-methoxy-1-[(1S)-1-methylpropyl]-4-oxobutyl}-N-methyl-L-valinamide] (H-[NMeAib]V[Dil][Dolaproine]F-NHPr)	0.279 nM	–	–
CC[C@H](C)[C@@H]([C@@H](CC(=O)N1CCC[C@H]1[C@H](OC)[C@@H](C)C(=O)N[C@@H](Cc1ccccc1)c1nccs1)OC)N(C)C(=O)[C@@H](NC(=O)[C@@]1(F)CCNC1)C(C)C [#192, N˜2˜-{[(3R)-3-fluoropyrrolidin-3-yl]carbonyl}-N-[(3R,4S,5S)-3-methoxy-1-{(2S)-2-[(1R,2R)-1-methoxy-2-methyl-3-oxo-3-{[(1S)-2-phenyl-1-(1,3-thiazol-2-yl)ethyl]amino}propyl]pyrrolidin-1-yl}-5-methyl-1-oxoheptan-4-yl]-N-methyl-L-valinamide]	0.262 nM	0.408 nM	–
CC[C@H](C)[C@@H]([C@@H](CC(=O)N1CCC[C@H]1[C@H](OC)[C@@H](C)C(=O)N[C@@H](Cc1ccccc1)C(=O)OC)OC)N(C)C(=O)[C@@H](NC(=O)[C@]1(C)CCCN1)C(C)C [#117, 2-methyl-L-prolyl-N-{(1S,2R)-4-{(2S)-2-[(1R,2R)-3-{[(1S)-1-benzyl-2-methoxy-2-oxoethyl]amino}-1-methoxy-2-methyl-3-oxopropyl]pyrrolidin-1-yl}-2-methoxy-1-[(1S)-1-methylpropyl]-4-oxobutyl}-N-methyl-L-valinamide] (H-[αMeP]V[Dil][Dolaproine]F-OMe)	0.096 nM	0.118 nM	–
CC[C@H](C)[C@@H]([C@@H](CC(=O)N1CCC[C@H]1[C@H](OC)[C@@H](C)C(=O)N[C@@H](Cc1ccccc1)c1nccs1)OC)N(C)C(=O)[C@@H](NC(=O)[C@]1(F)CCNC1)C(C)C [#194, N˜2˜-{[(3S)-3-fluoropyrrolidin-3-yl]carbonyl}-N-[(3R,4S,5S)-3-methoxy-1-{(2S)-2-[(1R,2R)-1-methoxy-2-methyl-3-oxo-3-{[(1S)-2-phenyl-1-(1,3-thiazol-2-yl)ethyl]amino}propyl]pyrrolidin-1-yl}-5-methyl-1-oxoheptan-4-yl]-N-methyl-L-valinamide]	0.134 nM	0.198 nM	–
CC[C@H](C)[C@@H]([C@@H](CC(=O)N1CCC[C@H]1[C@H](OC)[C@@H](C)C(=O)N[C@@H](Cc1ccccc1)c1nccs1)OC)N(C)C(=O)[C@@H](NC(=O)C(C)(C)N)C(C)C [#54, 2-methylalanyl-N-[(3R,4S,5S)-3-methoxy-1-{(2S)-2-[(1R,2R)-1-methoxy-2-methyl-3-oxo-3-{[(1S)-2-phenyl-1-(1,3-thiazol-2-yl)ethyl]amino}propyl]pyrrolidin-1-yl}-5-methyl-1-oxoheptan-4-yl]-N-methyl-L-valinamide] (H-[Aib]V[Dil][Dolaproine]-Doe)	< 0.133 nM	–	< 0.221 nM
CC[C@H](C)[C@@H]([C@@H](CC(=O)N1CCC[C@H]1[C@H](OC)[C@@H](C)C(=O)NCCC1C=CC=CC=C1)OC)N(C)C(=O)[C@@H](NC(=O)[C@@]1(C)CCCN1)C(C)C [#247] (H-[d(αMeP)]V[Dil][Dolaproine]-X8)	1.01 nM	–	2.06 nM
CC[C@H](C)[C@@H]([C@@H](CC(=O)N1CCC[C@H]1[C@H](OC)[C@@H](C)C(=O)N[C@@H](Cc1ccccc1)C(=O)OC)OC)N(C)C(=O)[C@@H](NC(=O)[C@@](C)(N)CC)C(C)C [#148, L-isovalyl-N-{(1S,2R)-4-{(2S)-2-[(1R,2R)-3-{[(1S)-1-benzyl-2-methoxy-2-oxoethyl]amino}-1-methoxy-2-methyl-3-oxopropyl]pyrrolidin-1-yl}-2-methoxy-1-[(1S)-1-methylpropyl]-4-oxobutyl}-N-methyl-L-valinamide] (H-[Iva]V[Dil][Dolaproine]F-OMe)	0.429 nM	–	–
CC[C@H](C)[C@@H]([C@@H](CC(=O)N1CCC[C@H]1[C@H](OC)[C@@H](C)C(=O)N[C@@H](Cc1ccccc1)C(N)=O)OC)N(C)C(=O)[C@@H](NC(=O)C(C)(C)NC)C(C)C [#141, N,2-dimethylalanyl-N-{(1S,2R)-4-{(2S)-2-[(1R,2R)-3-{[(1S)-2-amino-1-benzyl-2-oxoethyl]amino}-1-methoxy-2-methyl-3-oxopropyl]pyrrolidin-1-yl}-2-methoxy-1-[(1S)-1-methylpropyl]-4-oxobutyl}-N-methyl-L-valinamide] (H-[NMeAib]V[Dil][Dolaproine]F-NH2)	3.37 nM	–	3.02 nM
CC[C@H](C)[C@@H]([C@@H](CC(=O)N1CCC[C@H]1[C@H](OC)[C@@H](C)C(=O)N[C@@H](Cc1ccccc1)C(=O)OC)OC)N(C)C(=O)[C@@H](NC(=O)[C@@]1(C)CCCN1)C(C)C [#131, 2-methyl-D-prolyl-N-[(3R,4S,5S)-3-methoxy-1-{(2S)-2-[(1R,2R)-1-methoxy-3-{[(2S)-1-methoxy-1-oxo-3-phenylpropan-2-yl]amino}-2-methyl-3-oxopropyl]pyrrolidin-1-yl}-5-methyl-1-oxoheptan-4-yl]-N-methyl-L-valinamide] (H-[d(αMeP)]V[Dil][Dolaproine]F-OMe)	0.072 nM	–	–
CC[C@H](C)[C@@H]([C@@H](CC(=O)N1CCC[C@H]1[C@H](OC)[C@@H](C)C(=O)N[C@@H](Cc1ccccc1)C(=O)OC)OC)N(C)C(=O)[C@@H](NC(=O)[C@](C)(N)C(C)C)C(C)C [#146, 3-methyl-D-isovalyl-N-{(1S,2R)-4-{(2S)-2-[(1R,2R)-3-{[(1S)-1-benzyl-2-methoxy-2-oxoethyl]amino}-1-methoxy-2-methyl-3-oxopropyl]pyrrolidin-1-yl}-2-methoxy-1-[(1S)-1-methylpropyl]-4-oxobutyl}-N-methyl-L-valinamide] (H-[d(αMeV)]V[Dil][Dolaproine]F-OMe)	0.435 nM	–	0.195 nM
CC[C@H](C)[C@@H]([C@@H](CC(=O)N1CCC[C@H]1[C@H](OC)[C@@H](C)C(=O)N[C@@H](Cc1ccccc1)c1nccs1)OC)N(C)C(=O)[C@@H](NC(=O)[C@@]1(C)CCCCN1)C(C)C [#190, (2R)—N-[(2S)-1-{[(3R,4S,5S)-3-methoxy-1-{(2S)-2-[(1R,2R)-1-methoxy-2-methyl-3-oxo-3-{[(1S)-2-phenyl-1-(1,3-thiazol-2-yl)ethyl]amino}propyl]pyrrolidin-1-yl}-5-methyl-1-oxoheptan-4-yl](methyl)amino}-3-methyl-1-oxobutan-2-yl]-2-methylpiperidine-2-carboxamide]	0.134 nM	–	0.066 nM
CC[C@H](C)[C@@H]([C@@H](CC(=O)N1CCC[C@H]1[C@H](OC)[C@@H](C)C(=O)N[C@@H](Cc1ccccc1)C(=O)OC)OC)N(C)C(=O)[C@@H](NC(=O)C(C)(C)N(C)C)C(C)C [#228] (X4-V[Dil][Dolaproine]F-OMe)	0.105 nM	–	0.09 nM
CC[C@H](C)[C@@H]([C@@H](CC(=O)N1CCC[C@H]1[C@H](OC)[C@@H](C)C(=O)N[C@@H](Cc1ccccc1)c1nccs1)OC)N(C)C(=O)[C@@H](NC(=O)C1(N)CC1)C(C)C [#51, N^2-[(1-aminocyclopropyl)carbonyl]-N-[(3R,4S,5S)-3-methoxy-1-{(2S)-2-[(1R,2R)-1-methoxy-2-methyl-3-oxo-3-{[(1S)-2-phenyl-1-(1,3-thiazol-2-yl)ethyl]amino}propyl]pyrrolidin-1-yl}-5-methyl-1-oxoheptan-4-yl]-N-methyl-L-valinamide] (H-[Ac3c]V[Dil][Dolaproine]-Doe)	< 0.599 nM	–	3.66 nM
C=CCOC(=O)[C@H](Cc1ccccc1)NC(=O)[C@H](C)[C@@H](OC)[C@@H]1CCCN1C(=O)C[C@@H](OC)[C@H]([C@@H](C)CC)N(C)C(=O)[C@@H](NC(=O)C(C)(C)NC)C(C)C [#238] (H-[NMeAib]V[Dil][Dolaproine]F-OAll)	0.139 nM	–	0.077 nM
CC[C@H](C)[C@@H]([C@@H](CC(=O)N1CCC[C@H]1[C@H](OC)[C@@H](C)C(=O)N[C@@H](Cc1ccccc1)C(=O)OC)OC)N(C)C(=O)[C@@H](NC(=O)[C@@]1(C)CCCCN1)C(C)C (single isomer, unassigned) [#159]	0.07 nM	–	0.075 nM
CC[C@H](C)[C@@H]([C@@H](CC(=O)N1CCC[C@H]1[C@H](OC)[C@@H](C)C(=O)N[C@H](C(=O)OC)[C@H]1Cc2ccccc21)OC)N(C)C(=O)[C@@H](NC(=O)C(C)(C)N)C(C)C [#225] (H-[Aib]V[Dil][Dolaproine][X11]-OMe)	3.45 nM	–	10.5 nM
CC[C@H](C)[C@@H]([C@@H](CC(=O)N1CCC[C@H]1[C@H](OC)[C@@H](C)C(=O)N[C@@H](C(=O)OC)C1(c2ccccc2)CC1)OC)N(C)C(=O)[C@@H](NC(=O)C(C)(C)N)C(C)C [#222] (H-[Aib]V[Dil][Dolaproine][X2]-OMe)	0.158 nM	–	0.352 nM
CC[C@H](C)[C@@H]([C@@H](CC(=O)N1CCC[C@H]1[C@H](OC)[C@@H](C)C(=O)N[C@@H](Cc1ccccc1)C(=O)O)OC)N(C)C(=O)[C@@H](NC(=O)C(C)(C)N)C(C)C [#69, 2-methylalanyl-N-[(3R,4S,5S)-1-{(2S)-2-[(1R,2R)-3-{[(1S)-1-carboxy-2-phenylethyl]amino}-1-methoxy-2-methyl-3-oxopropyl]pyrrolidin-1-yl}-3-methoxy-5-methyl-1-oxoheptan-4-yl]-N-methyl-L-valinamide] (H-[Aib]V[Dil][Dolaproine]F-OH)	80.2 nM	–	66 nM
